Experimental data taken from publication PMC5286426, “The Calcium-Dependent Switch Helix of L-Plastin Regulates Actin Bundling” (Scientific Reports, 2017).
“Also recorded” adds a separate entry of the source. Like-named read-outs stand apart in the source and are kept apart here.

Legend:
[1] = biological target: T1, Ca^2+-bound EF (EF domain of LPL) (Homo sapiens, UniProt P13796); experiment: Surface plasmon resonance (SPR), peptides binding to immobilized EF
T1 construct: His-tag (with TEV protease cleavage site) (N, cleaved yes); made in house; host or cells: E. coli BL21 (DE3)
T1 sequence (P13796 1-82 limits assumed): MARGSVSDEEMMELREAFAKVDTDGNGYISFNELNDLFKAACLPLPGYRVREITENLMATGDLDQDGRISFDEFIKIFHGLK
Protocol: The binding between Ca^2+-bound LPL-EF and a synthetic peptide corresponding to H5 (Ac-[…]-NH2) was evaluated by SPR using a BIAcore X100 instrument (GE Healthcare) and was compared to other peptides including the cytotoxic peptide melittin, and the CaM-target CaMKI and smMLCK peptides. Peptides used here were purchased as synthetic peptides with >95% purity from Genscript (San Diego, CA). The EF construct was immobilized via its sole cysteine residue (Cys42) onto a CM5 sensor chip (GE Healthcare) using thiol-coupling. The running buffer contained 10 mM Tris-HCl pH 7.5, 150 mM KCl, 1 mM CaCl2, and 0.005% (v/v) Tween-20. Different concentrations of the peptide sample were injected at a flow rate of 30 μL/min with a contact time of 1 min at 25 °C. The BIAevaluation software 2.0 (GE Healthcare) was used to process the SPR sensorgrams and for curve-fitting to obtain the dissociation constants (Kd’s). Two different concentrations in each experiment were injected twice to obtain the fitting errors (SEM).
SPR measurements for the interactions between EF and various peptides. The affinity fittings […]
The response units at 4 seconds after starting the injection were used for CaMKIp due to the nonspecific binding seen later during the injection, while the response units at 4 seconds before stopping the injection were used for the […]
(1 picture or pasted object on this page, not shown here)

^15N-labeled EF = experiment: HSQC NMR titration of ^15N-labeled EF with peptide; format: binding, human; details: H5 peptide added to ^15N-labeled EF (Supplementary Fig. S8)
Protocol: The calcium-free samples of EF-H5, EF-H5-S5E, and EF contained 0.5–1.0 mM ^15N- or ^13C,^15N-labeled protein, 100 mM KCl, 20 mM Bis-Tris (pH 6.8), 1 mM EDTA, 0.03% NaN3, 10 mM ^2H-labelled dithiothreitol (^2H-DTT), and 0.5 mM 2,2-dimethyl-2- silapentane-5-sulfonate (DSS) in 99.99% D2O or 10% D2O/90% H2O. The calcium free non-labeled LPL-EF was also prepared in 99.99% D2O with the same buffer components. The calcium-bound form of those constructs were prepared in buffer containing ~1 mM ^15N- or ^13C,^15N-labelled protein, 100 mM KCl, 20 mM Bis-Tris (pH 6.8), 5 mM CaCl2, 0.03% NaN3, 0.5 mM DSS, and 10 mM ^2H-DTT in 99.99% D2O or 10% D2O/90% H2O. The calcium-bound non-labeled LPL-EF-H5 was also prepared in 99.99% D2O with the same buffer ingredients. DSS was used as a reference to obtain ^1H, ^15N and ^13C chemical shifts. All NMR spectra were processed with NMRPipe[71] and analyzed using NMRView[72].
All NMR experiments were performed with a Bruker Avance 700 or 600 MHz spectrometer at 25 °C. […] All NOESY experiments including three-dimensional ^15N-edited NOESY-HSQC and ^13C-edited NOESY-HSQC, and two-dimensional NOESY were measured with a mixing time of 120 ms. {^1H}-^15N heteronuclear NOE data were obtained using a 5 sec train of 120° proton pulses.

[2] = tested on: ^15N-labeled ABD2 (residues 384–627); experiment: NMR titration of ^15N-labeled ABD2 with peptide; format: binding, human; details: synthetic H5 peptide titrated into ^15N-labeled ABD2 (Supplementary Fig. S5b)
normal cells = details: in words; no ref at the sentence; cited from earlier work
From the text: Development of metastasis provides the most serious challenge for cancer treatment and is responsible for most cancer related deaths. A number of recent studies have shown that ectopically expressed LPL is largely responsible for this process. Therefore, LPL presents itself as a promising target for drug development to prevent the metastatic activity of the cancer cells. It is also well known that inhibition of fascin, another actin-bundling protein, is a viable approach to block tumor metastasis.

[3] = EF immobilized via Cys42 on CM5 chip, 10 mM Tris-HCl pH 7.5, 150 mM KCl, 1 mM CaCl2, 0.005% Tween-20, 25 °C, response at 4 seconds before stopping the injection, fitting error SEM, read-out: KD

Compound | Kd ([1]; Ca^2+-bound EF, SPR, pH 7.5, 25 °C, read-out: Kd of H5 peptide for Ca^2+-bound EF (order of magnitude, discussion)) [nM] | Kd [1, 3] [nM] | HSQC spectral effect of H5 peptide on ^15N-labeled EF (^15N-labeled EF) | Interaction with ABD2 (chemical shift changes) [2] | Hemolysis and toxicity (normal cells)
Ac-STDVAKTFRKAINKKEGI-NH2 [H5p] | 1000 | 3520 | intermediate exchange and resultant line broadening; also recorded: did not produce the same spectrum as EF-H5 | no chemical shift changes were observed, indicating no interaction | 
CC[C@H](C)[C@H](NC(=O)CN)C(=O)NCC(=O)N[C@@H](C)C(=O)N[C@H](C(=O)N[C@@H](CC(C)C)C(=O)N[C@@H](CCCCN)C(=O)N[C@H](C(=O)N[C@@H](CC(C)C)C(=O)N[C@H](C(=O)N[C@H](C(=O)NCC(=O)N[C@@H](CC(C)C)C(=O)N1CCC[C@H]1C(=O)N[C@@H](C)C(=O)N[C@@H](CC(C)C)C(=O)N[C@H](C(=O)N[C@@H](CO)C(=O)N[C@@H](Cc1c[nH]c2ccccc12)C(=O)N[C@H](C(=O)N[C@@H](CCCCN)C(=O)N[C@@H](CCCNC(=N)N)C(=O)N[C@@H](CCCCN)C(=O)N[C@@H](CCCNC(=N)N)C(=O)N[C@@H](CCC(N)=O)C(=O)N[C@@H](CCC(N)=O)C(N)=O)[C@@H](C)CC)[C@@H](C)CC)[C@@H](C)O)[C@@H](C)O)C(C)C)C(C)C [Melittin, reference compound] |  | 158 |  |  | strong hemolytic peptide that is toxic to all normal cells
